Reference: PubChem BioAssay AID192 (DTP/NCI, 2004)
Toxic doses and inconclusive results are not listed. Peptide text beside a SMILES is read from it. * marks the point of attachment. Bn = c1ccc(C*)cc1

Tested on: BDF1 mice, B16 melanoma ip, median survival T/C
Assay: NCI In Vivo Anticancer Drug Screen. Data for tumor model B16 Melanoma (intraperitoneal) in B6D2F1 (BDF1) mice
Conditions: endpoint: median survival time, higher = longer survival
How it was run: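 Mice with transplantable tumors; drug vs vehicle groups; endpoint survival or tumor size; value = T/C.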

[1] = dose: 0.75 mg/kg/injection, schedule: Q01DX009 (ip), vehicle: Klucel (hydroxypropylcellulose) (HPC)
[2] = dose: 1.5 mg/kg/injection, schedule: Q01DX009 (ip), vehicle: Klucel (hydroxypropylcellulose) (HPC)
[3] = dose: 6.25 mg/kg/injection, schedule: Q01DX009 (ip), vehicle: saline with Tween-80
[4] = dose: 12.5 mg/kg/injection, schedule: Q01DX009 (ip), vehicle: saline with Tween-80
[5] = dose: 25.0 mg/kg/injection, schedule: Q01DX009 (ip), vehicle: saline with Tween-80
[6] = dose: 50.0 mg/kg/injection, schedule: Q01DX009 (ip), vehicle: saline with Tween-80
[7] = dose: 100.0 mg/kg/injection, schedule: Q01DX009 (ip), vehicle: saline with Tween-80
[8] = dose: 25.0 mg/kg/injection, schedule: Q01DX009 (ip), vehicle: Klucel (hydroxypropylcellulose) (HPC)
[9] = dose: 50.0 mg/kg/injection, schedule: Q01DX009 (ip), vehicle: Klucel (hydroxypropylcellulose) (HPC)
[10] = dose: 100.0 mg/kg/injection, schedule: Q01DX009 (ip), vehicle: Klucel (hydroxypropylcellulose) (HPC)
[11] = dose: 200.0 mg/kg/injection, schedule: Q01DX009 (ip), vehicle: Klucel (hydroxypropylcellulose) (HPC)
[12] = dose: 200.0 mg/kg/injection, schedule: Q01DX009 (ip), vehicle: saline with Tween-80
[13] = dose: 400.0 mg/kg/injection, schedule: Q01DX009 (ip), vehicle: Klucel (hydroxypropylcellulose) (HPC)
[14] = dose: 400.0 mg/kg/injection, schedule: Q01DX009 (ip), vehicle: saline with Tween-80
[15] = dose: 8.0 mg/kg/injection, schedule: Q01DX009 (ip), vehicle: saline with Tween-80
[16] = dose: 25.0 mg/kg/injection, schedule: Q01DX009 (ip), vehicle: saline
[17] = dose: 50.0 mg/kg/injection, schedule: Q01DX009 (ip), vehicle: saline
[18] = dose: 100.0 mg/kg/injection, schedule: Q01DX009 (ip), vehicle: saline
[19] = dose: 200.0 mg/kg/injection, schedule: Q01DX009 (ip), vehicle: saline
[20] = dose: 6.25 mg/kg/injection, schedule: Q01DX009 (ip), vehicle: saline
[21] = dose: 12.5 mg/kg/injection, schedule: Q01DX009 (ip), vehicle: saline

Compound: CC/C(C)=C1\OC(=O)C(C)C(O)C(Cc2cccnc2)NC(=O)C(NC(=O)c2ncccc2O)C(C)OC1=O (stereo unspecified)
- T/C [1]: 118 % of control
- T/C [2]: 98 % of control
- T/C (dose: 3.0 mg/kg/injection, schedule: Q01DX009 (ip), vehicle: Klucel (hydroxypropylcellulose) (HPC)): 99 % of control
- T/C [3]: 87 % of control
- T/C [4]: 97 % of control
- T/C [5]: 96 % of control

Compound: CO/C(=C\c1ccc(OC)cc1)C(=O)O
- T/C (dose: 50.0 mg/kg/injection, schedule: Q04DX003 (ip), vehicle: Klucel (hydroxypropylcellulose) (HPC)): 94 % of control
- T/C (dose: 100.0 mg/kg/injection, schedule: Q04DX003 (ip), vehicle: Klucel (hydroxypropylcellulose) (HPC)): 100 % of control
- T/C (dose: 200.0 mg/kg/injection, schedule: Q04DX003 (ip), vehicle: Klucel (hydroxypropylcellulose) (HPC)): 111 % of control

Compound: Cc1ccc(NC(=O)Nc2ccc(C)c(NC(=O)Nc3ccc(C)c(Cl)c3)c2)cc1Cl
- T/C [3]: 99 % of control
- T/C [4]: 90 % of control
- T/C [5]: 99 % of control

Compound: CCCCNC(=S)N/N=C/c1ccccn1
- T/C [5]: 102 % of control
- T/C [6]: 99 % of control
- T/C [7]: 104 % of control

Compound: CC(=O)Nc1ccc(/C=N/NC(N)=S)cc1
- T/C [8]: 102 % of control
- T/C [5]: 108 % of control
- T/C [9]: 100 % of control
- T/C [6]: 105 % of control
- T/C [10]: 102 % of control
- T/C [7]: 100 % of control
- T/C [11]: 105 % of control
- T/C [12]: 98 % of control
- T/C [13]: 100 % of control
- T/C [14]: 95 % of control

Compound: CC(=O)NC1=C(N2CC2C)C(=O)C(NC(C)=O)=C(N2CC2C)C1=O (stereo unspecified)
- T/C (dose: 0.62 mg/kg/injection, schedule: Q01DX009 (ip), vehicle: saline): 89 % of control
- T/C (dose: 1.25 mg/kg/injection, schedule: Q01DX009 (ip), vehicle: saline): 105 % of control

Compound: CCOC(=O)CCOc1ccc(Cl)cc1
- T/C [7]: 101 % of control
- T/C [12]: 102 % of control
- T/C [14]: 96 % of control

Compound: CCC1CCCCC1(O)CC (stereo unspecified)
- T/C [9]: 98 % of control
- T/C [10]: 99 % of control

Compound: COc1ccc(NC(=O)Oc2ccccc2-c2ccccc2)cc1
- T/C [15]: 100 % of control
- T/C (dose: 12.0 mg/kg/injection, schedule: Q01DX009 (ip), vehicle: saline with Tween-80): 95 % of control
- T/C [4]: 223 % of control
- T/C (dose: 18.0 mg/kg/injection, schedule: Q01DX009 (ip), vehicle: saline with Tween-80): 95 % of control
- T/C [5]: 199 % of control
- T/C [6]: 213 % of control

Compound: CNCCN(C)Cc1ccccc1
- T/C [16]: 97 % of control
- T/C [17]: 94 % of control
- T/C [18]: 89 % of control

Compound: COc1ccccc1N=Nc1c(O)ccc2ccccc12
- T/C [5]: 101 % of control
- T/C [6]: 112 % of control
- T/C [7]: 108 % of control

Compound: C[C@H]1C/C=C/[C@H]2[C@@H]3O[C@]3(C)[C@@H](C)[C@H]3[C@H](Cc4ccccc4)NC(=O)[C@]32OC(=O)O/C=C/[C@@](C)(O)C1=O
- T/C (dose: 1.25 mg/kg/injection, schedule: Q01DX009 (ip), vehicle: Klucel (hydroxypropylcellulose) (HPC)): 86 % of control
- T/C (dose: 2.5 mg/kg/injection, schedule: Q01DX009 (ip), vehicle: Klucel (hydroxypropylcellulose) (HPC)): 92 % of control
- T/C (dose: 10.0 mg/kg/injection, schedule: Q01DX009 (ip), vehicle: Klucel (hydroxypropylcellulose) (HPC)): 89 % of control

Compound: Nc1nc(N)c2nc(CN(CCO)c3ccc(C(=O)NC(CCC(=O)O)C(=O)O)cc3)cnc2n1 (stereo unspecified)
- T/C (dose: 0.1 mg/kg/injection, schedule: Q01DX009 (ip), vehicle: Klucel (hydroxypropylcellulose) (HPC)): 107 % of control
- T/C (dose: 0.2 mg/kg/injection, schedule: Q01DX009 (ip), vehicle: Klucel (hydroxypropylcellulose) (HPC)): 101 % of control
- T/C (dose: 0.37 mg/kg/injection, schedule: Q01DX009 (ip), vehicle: Klucel (hydroxypropylcellulose) (HPC)): 99 % of control
- T/C [1]: 109 % of control
- T/C (dose: 1.0 mg/kg/injection, schedule: Q01DX009 (ip), vehicle: Klucel (hydroxypropylcellulose) (HPC)): 157 % of control
- T/C [2]: 97 % of control

Compound: CCCCC(CCCC)c1ccccn1
- T/C [3]: 104 % of control
- T/C [4]: 108 % of control
- T/C [5]: 102 % of control

Compound: NC(=O)CC(N)C(=O)O (stereo unspecified)
- T/C (dose: 50.0 mg/kg/injection, schedule: Q01DX009 (ip), vehicle: other): 99 % of control
- T/C (dose: 100.0 mg/kg/injection, schedule: Q01DX009 (ip), vehicle: other): 96 % of control
- T/C [18]: 92 % of control
- T/C (dose: 200.0 mg/kg/injection, schedule: Q01DX009 (ip), vehicle: other): 105 % of control
- T/C [19]: 87 % of control
- T/C (dose: 400.0 mg/kg/injection, schedule: Q01DX009 (ip), vehicle: other): 96 % of control
- T/C (dose: 400.0 mg/kg/injection, schedule: Q01DX009 (ip), vehicle: saline): 87 % of control
- T/C (dose: 800.0 mg/kg/injection, schedule: Q01DX009 (ip), vehicle: other): 104 % of control
- T/C (dose: 1600.0 mg/kg/injection, schedule: Q01DX009 (ip), vehicle: other): 103 % of control

Compound: CCCCCCCCCCCCCCCCCCNC(=S)N/N=C/c1ccc(Cl)cc1Cl
- T/C [18]: 87 % of control
- T/C [19]: 95 % of control

Compound: CCOc1cc(N2CCOCC2)c(OCC)cc1N
- T/C [20]: 95 % of control
- T/C [21]: 102 % of control
- T/C [16]: 100 % of control

Compound: COC(=O)C(CC(C)C)NC(=O)C(N)Cc1ccc(OCc2ccccc2)cc1 (stereo unspecified) (H-Tyr(Bn)-Leu-OMe; configuration not given here)
- T/C (dose: 12.5 mg/kg/injection, schedule: Q01DX009 (ip), vehicle: Klucel (hydroxypropylcellulose) (HPC)): 110 % of control
- T/C [8]: 96 % of control

Compound: O=[N+]([O-])c1cc(Cl)cc2c1nc(NCCO)c1ccccc12
- T/C [4]: 97 % of control
- T/C [5]: 97 % of control

Compound: CCOC(=O)N1Cc2cc3cc(Cl)ccc3nc2C1
- T/C [15]: 103 % of control
- T/C (dose: 16.0 mg/kg/injection, schedule: Q01DX009 (ip), vehicle: saline with Tween-80): 95 % of control
- T/C (dose: 32.0 mg/kg/injection, schedule: Q01DX009 (ip), vehicle: saline with Tween-80): 93 % of control
- T/C (dose: 64.0 mg/kg/injection, schedule: Q01DX009 (ip), vehicle: saline with Tween-80): 112 % of control

Compound: CN1CCC=C(C(=O)N2c3ccccc3Sc3ccc(Cl)cc32)C1
- T/C [20]: 96 % of control
- T/C [21]: 89 % of control

Compound: O=C(COc1ccc(Cl)cc1Cl)Nc1ccc(F)cc1
- T/C [5]: 110 % of control
- T/C [6]: 91 % of control
- T/C [7]: 86 % of control

Compound: COc1cc(C(=O)OCCCN2CCOCC2)cc(OC)c1OC
- T/C (dose: 0.78 mg/kg/injection, schedule: Q01DX009 (ip), vehicle: saline): 105 % of control
- T/C (dose: 1.56 mg/kg/injection, schedule: Q01DX009 (ip), vehicle: saline): 110 % of control
- T/C (dose: 3.12 mg/kg/injection, schedule: Q01DX009 (ip), vehicle: saline): 110 % of control
- T/C [20]: 105 % of control
- T/C [21]: 110 % of control
- T/C [19]: 89 % of control

Compound: Cc1ccc(NC(=O)c2ccccc2)cc1Cl
- T/C [10]: 101 % of control
- T/C [11]: 103 % of control
- T/C [13]: 101 % of control

Compound: O=S(=O)(O)c1ccc(-c2c3nc(c(-c4ccc(S(=O)(=O)O)cc4)c4ccc([nH]4)c(-c4ccc(S(=O)(=O)O)cc4)c4nc(c(-c5ccc(S(=O)(=O)O)cc5)c5ccc2[nH]5)C=C4)C=C3)cc1
- T/C [20]: 104 % of control
- T/C [21]: 105 % of control
- T/C [16]: 117 % of control
- T/C [17]: 110 % of control
